Assay results reported in US5298494A, “Monosaccharides having anti-proliferation and anti-inflammatory activity, compositions and uses thereof” (Greenwich Pharmaceuticals Incorporated, priority 1993, dated 1994).

Test system: BUD-8 human skin fibroblasts
Experiment: Fibroblast assay: proliferation of BUD-8 skin cell fibroblasts
Type: cell-based
Description: The human skin cell fibroblast line, BUD-8 was obtained prior to each assay from the American Type Culture Collection. This is a fibroblast-like cell line which was originally derived from the normal skin of a person.
BUD-8 cell cultures were expanded for use in 25 cm^2 flasks at 37° C. in an atmosphere of 5% CO2 in air. At approximately 4-5 five day intervals, or when confluence was reached, the cells were passaged. This was accomplished by detaching the cells with a Teflon scraper, washing and reseeding the cells at a lower density into fresh tissue culture flasks.
The effect of the compound of the present invention on the proliferative capacity of human BUD-8 skin fibroblasts was measured with the use of a ^3 H-thymidine incorporation assay using culture conditions which were similar to those used for a Con-A blastogenesis assay, described previously. Cultured skin cells were detached from the surface of tissue culture flasks mechanically with a Teflon scraper. The cells were washed, resuspended in incubation medium and the viabilities were determined. These cells were then plated in triplicate at a density of 2×10^3 cells/0.1 ml/microtiter well for the proliferation assay and a density of 1×10^4 cells/0.1 ml/microtiter well for the assays to quantitate PGE2 and LTB4. To these cells was added incubation medium containing indomethacin to inhibit prostaglandin production, or nordihydroguaiaretic acid (NDGA) to inhibit leukotriene production (positive controls).
After 3 days of culture, 1 uCi ^3 H-thymidine was added in a 50 ul volume to each culture well of the microtiter plates. Eighteen hours later, each of the BUD-8 cultures was examined morphologically for evidence of compound-induced toxicity such as cell rounding or granularity. The thymidine-pulsed cells were then precipitated and the amount of ^3 H-thymidine incorporated was counted in a liquid scintillation counter.
The concentrations of the compounds of the invention which were used in these assays were:
The incubation medium used for culturing the BUD-8 cells was RPMI-1640 medium containing 10% fetal bovine serum, 100 ug/ml streptomycin, 100 U/ml penicillin, 0.2M Hepes buffer solution, 5×10^-5 M 2-mercaptoethanol and 2 mM glutamine.

CCCCCCCOCCCO[C@@H]1[C@H]2OC(C)(C)O[C@H]2O[C@@H]1[C@H](O)CO [IIg]
^3 H-Thymidine uptake by BUD-8 skin cells (1 ug/ml): 6,096 ± 1,352 cpm | ^3 H-Thymidine uptake by BUD-8 skin cells (10 ug/ml): 3,552 ± 994 cpm | ^3 H-Thymidine uptake by BUD-8 skin cells (25 ug/ml): 4,207 ± 450 cpm | ^3 H-Thymidine uptake by BUD-8 skin cells (100 ug/ml): 4,117 ± 481 cpm | ^3 H-Thymidine uptake by BUD-8 skin cells (300 ug/ml): 2,233 ± 244 cpm | ^3 H-Thymidine uptake by BUD-8 skin cells (750 ug/ml): 3,898 ± 1,692 cpm | inhibition at 1 µg/mL (Homo sapiens, Skin fibroblast, 1 ug/ml, read-out: % Effect on BUD-8 proliferation): 1% | inhibition at 10 µg/mL (Homo sapiens, Skin fibroblast, 10 ug/ml, read-out: % Effect on BUD-8 proliferation): 42% | inhibition at 25 µg/mL (Homo sapiens, Skin fibroblast, 25 ug/ml, read-out: % Effect on BUD-8 proliferation): 32% | inhibition at 100 µg/mL (Homo sapiens, Skin fibroblast, 100 ug/ml, read-out: % Effect on BUD-8 proliferation): 33% | inhibition at 300 µg/mL (Homo sapiens, Skin fibroblast, 300 ug/ml, read-out: % Effect on BUD-8 proliferation): 64% | inhibition at 750 µg/mL (Homo sapiens, Skin fibroblast, 750 ug/ml, read-out: % Effect on BUD-8 proliferation): 37%
